# Reference: article PMC12822132, “Targeting mechanosensitive cannabinoid receptor 1 with isoflavone prodrugs attenuates atherosclerotic endothelial dysfunction” (Journal of Biomedical Science, 2026)
# Target: T1, cannabinoid receptor 1 (CB1) (Homo sapiens, UniProt P21554)
# T1 construct: gene CNR1; human recombinant receptor expressed in Chem-1 cells
# Assay: radioligand displacement binding assay
# Type: cell-based
# T1 sequence (P21554 whole entry): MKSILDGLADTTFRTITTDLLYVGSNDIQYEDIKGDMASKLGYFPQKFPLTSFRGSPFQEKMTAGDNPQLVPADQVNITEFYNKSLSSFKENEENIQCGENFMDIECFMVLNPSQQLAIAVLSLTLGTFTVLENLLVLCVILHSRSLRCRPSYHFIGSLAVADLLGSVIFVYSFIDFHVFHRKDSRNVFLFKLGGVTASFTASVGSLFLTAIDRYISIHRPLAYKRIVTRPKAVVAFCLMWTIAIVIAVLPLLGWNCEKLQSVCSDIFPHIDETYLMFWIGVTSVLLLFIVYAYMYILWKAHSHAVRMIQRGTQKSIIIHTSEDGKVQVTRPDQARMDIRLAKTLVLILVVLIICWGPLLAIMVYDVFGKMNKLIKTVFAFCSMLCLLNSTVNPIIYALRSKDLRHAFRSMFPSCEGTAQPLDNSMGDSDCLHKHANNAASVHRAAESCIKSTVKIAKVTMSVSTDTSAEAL
smiles,measurement,value
O=c1c(-c2ccc(O)cc2)coc2cc(O)cc(O)c12 [genistein],Ki,140 nM
